“And” between values parts separate entries of the source, which are not always exact repeats. Identical values can stand only once.
target: T1, Human ATX protein (Homo sapiens, UniProt Q13822); assay: ATX biochemical assay (FRET, FS-3 substrate); conditions: FRET assay, FS-3 2 μM, ATX 1.0 μg/mL, 30 minutes preincubation, 2 hours reaction at room temperature; read-out: IC50
T1 construct: made in house
Procedure, shortened: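 FRET read-out: cleavage of FS-3 (2 μM final) unquenches fluorescein, measured at 485/538 nm after 2 h at room temperature. Before substrate addition, in-house-expressed human autotaxin (1.0 μg/mL) sat with compound for 30 min in pH 7.4 Tris/NaCl/KCl/CaCl2/MgCl2 buffer containing fatty acid free-BSA at 1 mg/mL.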

| Structure (SMILES) | IC50 |
| --- | --- |
| COC(=O)[C@H]1CC[C@H](NC(=O)N2CCc3c(C(F)(F)F)nn(Cc4ccc(Cl)cc4F)c3C2)CC1 [Example 3-2, trans-Methyl 4-(1-(4-chloro-2-fluorobenzyl)-3-(trifluoromethyl)-4,5,6,7-tetrahydro-1H-pyrazolo[3,4-c]pyridine-6-carboxamido)cyclohexanecarboxylate] | 100 to 250 nM |
| COC(=O)[C@H]1CC[C@@H](N(C)C(=O)N2CCc3c(C(F)(F)F)nn(Cc4ccc(Cl)cc4F)c3C2)CC1 [Example 3-3, cis-Methyl 4-(1-(4-chloro-2-fluorobenzyl)-N-methyl-3-(trifluoromethyl)-4,5,6,7-tetrahydro-1H-pyrazolo[3,4-c]pyridine-6-carboxamido)cyclohexanecarboxylate] | > 500 nM and ≤ 10000 nM |
| COC(=O)[C@H]1CC[C@H](N(C)C(=O)N2CCc3c(C(F)(F)F)nn(Cc4ccc(Cl)cc4F)c3C2)CC1 [Example 3-4, trans-Methyl 4-(1-(4-chloro-2-fluorobenzyl)-N-methyl-3-(trifluoromethyl)-4,5,6,7-tetrahydro-1H-pyrazolo[3,4-c]pyridine-6-carboxamido)cyclohexanecarboxylate] | 100 to 250 nM |
| CCOC(=O)C1CCC(OC(=O)N2CCc3c(C(F)(F)F)nn(Cc4ccc(Cl)cc4F)c3C2)CC1 (centres unmarked) [Example 4-1, 4-(Ethoxycarbonyl)cyclohexyl1-(4-chloro-2-fluorobenzyl)-3-(trifluoromethyl)-4,5-dihydro-1H-pyrazolo[3,4-c]pyridine-6(7H)-carboxylate] | ≤ 100 nM |
| O=C(C[C@H]1CC[C@H](C(=O)O)CC1)N1CCc2c(C(F)(F)F)nn(Cc3ccc(Cl)cc3F)c2C1 [Example 5-1, trans-4-(2-(1-(4-Chloro-2-fluorobenzyl)-3-(trifluoromethyl)-4,5-dihydro-1H-pyrazolo[3,4-c]pyridin-6(7H)-yl)-2-oxoethyl)cyclohexanecarboxylic acid] | ≤ 100 nM |
| O=C(C[C@H]1CC[C@@H](C(=O)O)CC1)N1CCc2c(C(F)(F)F)nn(Cc3ccc(Cl)cc3F)c2C1 [Example 5-2, cis-4-(2-(1-(4-Chloro-2-fluorobenzyl)-3-(trifluoromethyl)-4,5-dihydro-1H-pyrazolo[3,4-c]pyridin-6(7H)-yl)-2-oxoethyl)cyclohexanecarboxylic acid] | ≤ 100 nM |
| O=C(C[C@H]1CC[C@H](C(=O)O)CC1)N1CCc2c(C(F)(F)F)nn(Cc3cc(F)cc(Cl)c3)c2C1 [Example 5-3, trans-4-(2-(1-(3-chloro-5-fluorobenzyl)-3-(trifluoromethyl)-4,5-dihydro-1H-pyrazolo[3,4-c]pyridin-6(7H)-yl)-2-oxoethyl)cyclohexanecarboxylic acid] | ≤ 100 nM |
| O=C(C[C@H]1CC[C@@H](C(=O)O)CC1)N1CCc2c(C(F)(F)F)nn(Cc3cc(F)cc(Cl)c3)c2C1 [Example 5-4, cis-4-(2-(1-(3-chloro-5-fluorobenzyl)-3-(trifluoromethyl)-4,5-dihydro-1H-pyrazolo[3,4-c]pyridin-6(7H)-yl)-2-oxoethyl)cyclohexanecarboxylic acid] | ≤ 100 nM |
| O=C(O)c1ccc(CC(=O)N2CCc3c(C(F)(F)F)nn(Cc4ccc(Cl)cc4F)c3C2)cc1 [Example 5-5, 4-(2-(1-(4-Chloro-2-fluorobenzyl)-3-(trifluoromethyl)-4,5-dihydro-1H-pyrazolo[3,4-c]pyridin-6(7H)-yl)-2-oxoethyl)benzoic acid] | ≤ 100 nM |
| O=C(N[C@H]1CC[C@@H](C(=O)O)CC1)N1CCc2c(C(F)(F)F)nn(Cc3ccc(Cl)cc3F)c2C1 [Example 5-6, cis-4-(1-(4-chloro-2-fluorobenzyl)-3-(trifluoromethyl)-4,5,6,7-tetrahydro-1H-pyrazolo[3,4-c]pyridine-6-carboxamido)cyclohexanecarboxylic acid] | ≤ 100 nM |
| O=C(N[C@H]1CC[C@H](C(=O)O)CC1)N1CCc2c(C(F)(F)F)nn(Cc3ccc(Cl)cc3F)c2C1 [Example 5-7, trans-4-(1-(4-Chloro-2-fluorobenzyl)-3-(trifluoromethyl)-4,5,6,7-tetrahydro-1H-pyrazolo[3,4-c]pyridine-6-carboxamido)cyclohexanecarboxylic acid] | ≤ 100 nM |
